Measured values taken from US9676715B2, “Bis-indolic derivatives, a process for preparing the same and their uses as a drug” (UNIVERSITE JOSEPH FOURIER, priority 2011, dated 2017).
Values after ≈ are worked out from the molar mass of the structure shown.

Assays:
[1] = system: S. aureus ATCC 106414 (VISA); assay: MIC, microdilution method (9.1); type: cell-based, Staphylococcus aureus; details: Staphylococcus aureus, read after 18 h, read-out: MIC
Protocol: (§1) The microdilution method recommended by the Clinical and Laboratory Standard Institute [M07-A8, Vol. 29, No. 2] was used. The activity of indolic compounds was tested against 29 bacterial strains belonging to 17 different species and 12 different genera (Staphylococcus, Streptococcus, Enterococcus, Listeria, Bacillus, Haemophilus, Escherichia, Klebsiella, Enterobacter, Serratia, Pseudomonas, and Acinetobacter). Bacterial inocula were prepared in Mueller Hinton broth (MH2, bioMérieux, Marcy L'Etoile, France), supplemented with 10% sheep blood for fastidious species (i.e., Streptococcus pneumoniae and Haemophilus influenzae). They were dispensed in 96 well microtiter plates (5×10^5 CFU/ml of final inoculum). Indolic compounds were added to the wells as to obtain two-fold serial concentrations (0.50-128 mg/L of final concentrations). Plates were incubated at 37° C. in ambient air, or at 37° C. in 5% CO2 enriched atmosphere for fastidious species. […] Drug-free cultures served as growth controls. Cultures receiving gentamicin, ciprofloxacin or cefotaxime served as positive controls.

[2] = system: S. aureus ATCC 25923; assay: MIC, microdilution method (9.1); type: cell-based, Staphylococcus aureus; details: Staphylococcus aureus, ATCC25923, read after 18 h, read-out: MIC
Protocol: as §1

[3] = system: S. aureus ATCC 29213; assay: MIC, microdilution method (9.1); type: cell-based, Staphylococcus aureus; details: Staphylococcus aureus, ATCC29213, read after 18 h, read-out: MIC
Protocol: as §1

[4] = system: S. aureus ATCC 33592 (MRSA); assay: MIC, microdilution method (9.1); type: cell-based, Staphylococcus aureus; details: Staphylococcus aureus, read after 18 h, read-out: MIC
Protocol: as §1

[5] = system: S. aureus ATCC 6538; assay: MIC, microdilution method (9.1); type: cell-based, Staphylococcus aureus; details: Staphylococcus aureus, ATCC6538, read after 18 h, read-out: MIC
Protocol: as §1

[6] = system: S. aureus ATCC 9144; assay: MIC, microdilution method (9.1); type: cell-based, Staphylococcus aureus; details: Staphylococcus aureus, ATCC9144, read after 18 h, read-out: MIC
Protocol: as §1

[7] = system: S. aureus CIP 103428; assay: MIC, microdilution method (9.1); type: cell-based, Staphylococcus aureus; details: Staphylococcus aureus, CIP103428, read after 18 h, read-out: MIC
Protocol: as §1

[8] = system: S. aureus CIP 65.25 (MRSA); assay: MIC, microdilution method (9.1); type: cell-based, Staphylococcus aureus; details: Staphylococcus aureus, read after 18 h, read-out: MIC
Protocol: as §1

[9] = system: S. aureus CIP 65.6; assay: MIC, microdilution method (9.1); type: cell-based, Staphylococcus aureus; details: Staphylococcus aureus, CIP65, read after 18 h, read-out: MIC
Protocol: as §1

[10] = system: S. aureus SA-1199B; assay: MIC, microdilution method (9.1); type: cell-based, Staphylococcus aureus; details: Staphylococcus aureus, SA1199B, 18 h
Protocol: as §1

[11] = system: S. epidermidis ATCC 12228; assay: MIC, microdilution method (9.1); type: cell-based, Staphylococcus epidermidis; details: Staphylococcus epidermidis, ATCC12228, read after 18 h, read-out: MIC
Protocol: as §1

[12] = system: S. epidermidis CIP 103627; assay: MIC, microdilution method (9.1); type: cell-based, Staphylococcus epidermidis; details: Staphylococcus epidermidis, CIP103627, read after 18 h, read-out: MIC
Protocol: as §1

[13] = system: S. epidermidis CIP 81.55; assay: MIC, microdilution method (9.1); type: cell-based, Staphylococcus epidermidis; details: Staphylococcus epidermidis, CIP81, read after 18 h, read-out: MIC
Protocol: as §1

[14] = system: S. pneumoniae ATCC 6303; assay: MIC, microdilution method (9.1); type: cell-based, Streptococcus pneumoniae; details: Streptococcus pneumoniae, ATCC6303, 10% sheep blood, 5% CO2, 18 h, read-out: MIC
Protocol: as §1

[15] = system: S. agalactiae (group B) ATCC 12400; assay: MIC, microdilution method (9.1); type: cell-based, Streptococcus agalactiae; details: Streptococcus agalactiae, ATCC12400, 18 h, read-out: MIC
Protocol: as §1

[16] = system: S. pyogenes (group A) CIP 104226; assay: MIC, microdilution method (9.1); type: cell-based, Streptococcus pyogenes; details: Streptococcus pyogenes, CIP104226, 18 h, read-out: MIC
Protocol: as §1

[17] = system: S. mitis CIP 103335; assay: MIC, microdilution method (9.1); type: cell-based, Streptococcus mitis; details: Streptococcus mitis, CIP103335, 18 h, read-out: MIC
Protocol: as §1

[18] = system: E. faecium CIP 54.32; assay: MIC, microdilution method (9.1); type: cell-based, Enterococcus faecium; details: Enterococcus faecium, CIP54, 18 h, read-out: MIC
Protocol: as §1

[19] = system: E. faecalis ATCC 29212; assay: MIC, microdilution method (9.1); type: cell-based, Enterococcus faecalis; details: Enterococcus faecalis, ATCC29212, 18 h, read-out: MIC
Protocol: as §1

[20] = system: Acinetobacter baumanii ATCC 19606; assay: MIC, microdilution method (9.1); type: cell-based; details: Acinetobacter baumannii, ATCC19606, 18 h, read-out: MIC
Protocol: as §1

[21] = system: Bacillus subtilis CIP 5262; assay: MIC, microdilution method (9.1); type: cell-based; details: CIP5262, 18 h, read-out: MIC
Protocol: as §1

[22] = system: Enterobacter cloacae ATCC13047; assay: MIC, microdilution method (9.1); type: cell-based; details: 18 h
Protocol: as §1

[23] = system: Escherichia coli ATCC 25922; assay: MIC, microdilution method (9.1); type: cell-based; details: ATCC25922, 18 h
Protocol: as §1

[24] = system: Haemophilus influenzae ATCC 49766; assay: MIC, microdilution method (9.1); type: cell-based; details: ATCC49766; Haemophilus influenzae ATCC 49766; 10% sheep blood, 5% CO2; 18 h; read-out: MIC
Protocol: as §1

[25] = system: Klebsiella pneumoniae API ATCC 35657; assay: MIC, microdilution method (9.1); type: cell-based; details: ATCC35657, 18 h, read-out: MIC
Protocol: as §1

[26] = system: Listeria innocua CIP 80.11; assay: MIC, microdilution method (9.1); type: cell-based; details: CIP80, 18 h, read-out: MIC
Protocol: as §1

[27] = system: Pseudomonas aeruginosa CIP 5933; assay: MIC, microdilution method (9.1); type: cell-based; details: CIP5933, 18 h, read-out: MIC
Protocol: as §1

[28] = system: S. pneumoniae ATCC 49619; assay: MIC, microdilution method (9.1); type: cell-based; details: Streptococcus pneumoniae, ATCC49619, 10% sheep blood, 5% CO2, 18 h
Protocol: as §1

[29] = system: Serratia marcescens CIP 103551; assay: MIC, microdilution method (9.1); type: cell-based; details: CIP103551, 18 h
Protocol: as §1

[30] = system: HCT116 (human colon tumor); assay: In vitro cytotoxicity; type: cell-based; details: read-out: % of cellular growth inhibition
Protocol: (§2) In vitro cytotoxicity was assayed on three cell lines—KB (human mouth carcinoma), MCR5 (human lung fibroblast) and HCT116 (human colon tumor). Results are presented in table IV as % of cellular growth inhibition in presence of 10^−5 M and 10^−6 M of the tested bis-indolic derivatives.

[31] = system: KB (human mouth carcinoma); assay: In vitro cytotoxicity; type: cell-based; details: read-out: % of cellular growth inhibition
Protocol: as §2

[32] = system: MRC5 (human lung fibroblast); assay: In vitro cytotoxicity; type: cell-based; details: read-out: % of cellular growth inhibition
Protocol: as §2

| SMILES | MIC [1] [µg/mL] | MIC [2] [µg/mL] | MIC [3] [µg/mL] | MIC [4] [µg/mL] | MIC [5] [µg/mL] | MIC [6] [µg/mL] | MIC [7] [µg/mL] | MIC [8] [µg/mL] | MIC [9] [µg/mL] | MIC [11] [µg/mL] | MIC [12] [µg/mL] | MIC [13] [µg/mL] | MIC [14] [µg/mL] | MIC [15] [µg/mL] | MIC [16] [µg/mL] | MIC [17] [µg/mL] | MIC [18] [µg/mL] | MIC [19] [µg/mL] | MIC [20] [µg/mL] | MIC [21] [µg/mL] | further results |
| --- | --- | --- | --- | --- | --- | --- | --- | --- | --- | --- | --- | --- | --- | --- | --- | --- | --- | --- | --- | --- | --- |
| CC(C)(C)OC(=O)NCC(NC(=O)c1c[nH]c2cc(Cl)ccc12)c1c[nH]c2ccc(Cl)cc12 (stereo not drawn) [Compound 6b, tert-Butyl 2-(5-chloro-1H-indol-3-yl)-2-(6-chloro-1H-indole-3-carboxamido)ethyl carbamate] | 4 (≈ 8.21 µM) | 4 (≈ 8.21 µM) | 4 (≈ 8.21 µM) | 4 (≈ 8.21 µM) | 4 (≈ 8.21 µM) | 4 (≈ 8.21 µM) | 4 (≈ 8.21 µM) | 4 (≈ 8.21 µM) | 4 (≈ 8.21 µM) | 4 (≈ 8.21 µM) | 8 (≈ 16.4 µM) | 4 (≈ 8.21 µM) | 64 (≈ 131 µM) | 128 (≈ 263 µM) | 128 (≈ 263 µM) | 128 (≈ 263 µM) | > 128 | > 128 | > 128 | 64 (≈ 131 µM) | MIC [10]: 4 µg/mL (≈ 8.21 µM); MIC [22]: > 128 µg/mL; MIC [23]: > 128 µg/mL; MIC [24]: > 128 µg/mL; MIC [25]: > 128 µg/mL; MIC [26]: > 128 µg/mL; MIC [27]: > 128 µg/mL; MIC [28]: 64 µg/mL (≈ 131 µM); MIC [29]: > 128 µg/mL; inhibition at 10 µM ([30]; HCT-116, 10^−5 M): 97 ± 6%; inhibition at 1 µM ([30]; HCT-116, 10^−6 M): 0%; inhibition at 10 µM ([31]; 10^−5 M): 92 ± 4%; inhibition at 1 µM ([31]; 10^−6 M): 2%; inhibition at 10 µM ([32]; 10^−5 M): 99 ± 1%; inhibition at 1 µM ([32]; 10^−6 M): 0% |
| O=C(NC(C(=O)NCCO)c1c[nH]c2ccc(Br)cc12)c1c[nH]c2ccc(Br)cc12 (stereo not drawn) [Compound 14, 5-Bromo-N-(1-(5-bromo-1H-indol-3-yl)-2-((2-hydroxyethyl)amino)-2-oxoethyl)-1H-indole-3-carboxamide] | 32 (≈ 59.9 µM) | 32 (≈ 59.9 µM) | 32 (≈ 59.9 µM) | 32 (≈ 59.9 µM) | 32 (≈ 59.9 µM) | 32 (≈ 59.9 µM) | 32 (≈ 59.9 µM) | 32 (≈ 59.9 µM) | > 32 | 32 (≈ 59.9 µM) | 32 (≈ 59.9 µM) | 32 (≈ 59.9 µM) | 128 (≈ 240 µM) | 64 (≈ 120 µM) | 64 (≈ 120 µM) | > 128 | > 128 | > 128 | > 32 | > 128 | MIC [22]: > 32 µg/mL; MIC [23]: > 32 µg/mL; MIC [24]: > 128 µg/mL; MIC [25]: > 32 µg/mL; MIC [26]: > 128 µg/mL; MIC [27]: > 32 µg/mL; MIC [28]: 64 µg/mL (≈ 120 µM); MIC [29]: > 32 µg/mL |
